Data: article PMC9820444, “Design and Synthesis of Acridine-Triazole and Acridine-Thiadiazole Derivatives and Their Inhibitory Effect against Cancer Cells” (International Journal of Molecular Sciences, 2022)
Where two headings read alike, the source gives them in different places. Marks after values point to notes of the source that are not given here.

Assays:
[1] = test system: large cell lung cancer cells (NCI-H460); test: MTT antiproliferative assay, NCI-H460; format: cell-based, human; conditions: read-out: Effect against cell viability (IC50), NCI-H460
Procedure: (§1) All newly synthesized acridinyl derivatives (4–6) were screened for their anticancer activities in comparison to the reference compounds, 5-FU and cis-platinum. Compounds 4–6 were tested for their in vitro antitumor activities against HFF, MGC-803, BEL-7404, NCI-H460, and T24 tumor cell lines, and human normal liver cells (LO2), and the results are shown in Table 1. Most of the compounds had strong selective potency against MGC-803 and T24 cancer cells. […] In the T24 cell line assay, many compounds, especially the series of compound 4, had significant activity against T24. This implies that there is a significant increase in potency after the introduction of the aroyl thiourea group. […] To our delight, most 1,2,4-triazolethiones (5) and 1,2,4-thiadiazoles (6) have low toxicity to LO2 compared with the positive control.
(§2) Test samples, including compounds 4–6 and commercial classical anticancer drugs (5-FU and cis-platinum), were screened for their anti-cancer activity against HFF human foreskin fibroblast cells, MGC-803 human gastric cancer cells, BEL-7404 human hepatocellular carcinoma cells, NCI-H460 human large cell carcinoma cells, and T24 human bladder carcinoma cells using the 3-(4,5-dimethylthiazol-2-yl)-2,5-diphenyltetrazoliumbromide (MTT) assay method cited in the literature. The initial concentration of all the test samples was 100 μg/mL, which was serially diluted in complete medium with ten-fold dilutions to give six concentrations per compound. Their cytotoxicity was determined in 96-well flat bottomed microtiter plates. All the test samples were tested in triplicate. The results were expressed as the drug concentration that inhibited cell growth by 50% as compared to the controls (IC50). The IC50 values were calculated from regression lines obtained from the percent cell growth inhibition plotted as a function of the logarithm of the dose.

[2] = test system: hepatocellular carcinoma bel-7404 (BEL-7404); test: MTT antiproliferative assay, BEL-7404; format: cell-based, human; conditions: read-out: Effect against cell viability (IC50), BEL-7404
Procedure: as §1, §2

[3] = test system: human foreskin fibroblasts (HFF); test: MTT antiproliferative assay, HFF; format: cell-based; conditions: read-out: Effect against cell viability (IC50), HFF
Procedure: as §1, §2

[4] = test system: human gastric cancer cells-803 (MGC-803); test: MTT antiproliferative assay, MGC-803; format: cell-based; conditions: read-out: Effect against cell viability (IC50), MGC-803
Procedure: as §1, §2

[5] = test system: bladder cancer cells (T24); test: MTT antiproliferative assay, T24; format: cell-based, human; conditions: read-out: Effect against cell viability (IC50), T24
Procedure: as §1, §2

[6] = test system: subintestinal veins (SIVs) in zebrafish embryos; test: Zebrafish angiogenesis assay (subintestinal veins, NBT/BCIP staining); format: in vivo; conditions: 1 mg/mL
Description: Currently, the zebrafish has emerged as a valuable model organism to substitute traditional models for studying angiogenesis inhibitors. The genes of zebrafish show 70–80% similarity to humans, and the vascular structure of zebrafish has high similarity to that of other vertebrates. Therefore, the subintestinal veins (SIVs) in the zebrafish embryos are used as evaluation indicators for anti-angiogenesis inhibitors. In this study, NBT/BCIP vascular staining was used to observe the angiogenesis effect of representative drugs (4h, 4f, 5d, 5h, 6g and 6h) in a zebrafish model. […] Compared with the blank control group, the area of the meshed pattern vessel and the number of vascular branches in the network decreased after the administration of compounds 4h, 5d, 5h and 6h.
The 24 hpf zebrafish embryos were dechorionated with a 1 gL^−1 pronase treatment and maintained in distilled water in 12-well cell culture plates (each well contained 20 embryos). A negative control group containing zebrafish embryos in distilled water and a vehicle treatment group that was treated with 2% dimethyl sulfoxide (DMSO) were prepared. The anti-angiogenic compounds were diluted to 1 mg/mL. After incubating at 28 °C for […], the embryos were immersed in 4% paraformaldehyde and dehydrated by gradient ethanol. Subsequently, the embryos were balanced in NTMT buffer (5 M NaCl + 1 M Tris [pH 9.0–9.5] + 1 M MgCl2+ 10% Tween), and nitrotetrazolium blue chloride (NBT) and p-toluidine salt (BCIP) staining were performed. To evaluate the effect of compounds on the angiogenesis of zebrafish embryos, the growth of embryonic sub-intestinal veins (SIVs) at 72 hpf was observed using an IX71 Olympus microscope (Hamburger, Germany). The length of the SIVs was calculated using the image J 1.8.0 software (Bethesda, MD, USA).

[7] = test system: zebrafish embryos; design: mortality rate of zebrafish embryos: dose or concentration left out as unconfirmed; conditions: for MAR (malformation rate) / MOR (mortality rate): zebrafish embryos 72 hpf
Procedure: In this experiment, 2% DMSO was used to dissolve the target products, and the abnormal rate (MAR) and mortality rate (MOR) of zebrafish embryos (72 hpf) were used for statistics.
The zebrafish embryos were collected at 6 hpf and randomly divided into naive control (embryos maintained in distilled water), vehicle control (embryos treated with 2% DMSO), and drug groups. Stock solutions of all drugs were prepared in 2% DMSO as a solubilizing agent and diluted to three concentrations (0.5 mg/mL, 1 mg/mL, and 2 mg/mL). Each group had 20 embryos per test concentration. […] Each compound was evaluated in three independent biological experiments.

[8] = test system: human normal liver cells (LO2); test: Cytotoxicity against normal liver cells LO2; format: cell-based; conditions: MTT, read-out: Effect against cell viability (IC50), LO2
Procedure: as §1, §2

Structure (SMILES)	IC50 ([1]; Homo sapiens) [µM]	IC50 ([2]; Homo sapiens) [µM]	IC50 ([4]; Homo sapiens, MGC-803, MTT) [µM]	IC50 ([5]; Homo sapiens) [µM]	melting point [°C]	IC50 ([3]; Homo sapiens, Fibroblast) [µM]	IC50 ([8]; Homo sapiens) [µM]	other results
COc1ccc2[nH]c3ccccc3c(=NC(=S)NNC(=O)c3ccncc3)c2c1 [4a, 1-2′-methoxyl acridinyl-3-4′-pyridinamide thiourea]								IC50 [1]: 36.4 ± 3.12 µM; IC50 [2]: 26.9 ± 2.58 µM; IC50 [3]: 75.8 ± 3.52 µM; IC50 ([4]; MTT): 10.9 ± 1.82 µM; IC50 [5]: > 100 µM; area of blood vessels ([6]; zebrafish embryos, additional blood vessels were formed on the blood vessel edge): could reduce the area of blood vessels; MAR (malformation rate) ([7]; 1 mg/mL): 85% ^c; MOR (mortality rate) ([7]; 1 mg/mL): 15% ^c; MAR (malformation rate) ([7]; 1.5 mg/mL): 60% ^c; MOR (mortality rate) ([7]; 1.5 mg/mL): 40% ^c; MAR (malformation rate) ([7]; 2 mg/mL): 55% ^c; MOR (mortality rate) ([7]; 2 mg/mL): 45% ^c; total mortality and malformation rate ([7]; zebrafish embryos, 2.0 mg.L^−1): 100%; IC50 [8]: 22 ± 1.71 µM
COc1ccc2nc3ccccc3c(-n3c(-c4ccncc4)n[nH]c3=S)c2c1 [5a, 4-(2-methoxyacridin-9-yl)-5-(pyridin-4-yl)-2,4-dihydro-3H-1,2,4-triazole-3-thione]	36.5 ± 2.96	22.1 ± 2.72	22.4 ± 1.32	21.2 ± 2.72	272 to 273	74.5 ± 4.03	42 ± 2.31	
COc1ccc2nc3ccccc3c(-n3c(-c4ccccc4)n[nH]c3=S)c2c1 [5b, 4-(2-methoxyacridin-9-yl)-5-phenyl-2,4-dihydro-3H-1,2,4-triazole-3-thione]	42.1 ± 3.74	27.7 ± 2.97	15.8 ± 1.94	22.1 ± 1.85	259 to 261	53.6 ± 2.78	58.3 ± 3.25	
Cc1ccc2nc3ccccc3c(-n3c(-c4ccncc4)n[nH]c3=S)c2c1 [5f, 4-(2-methylacridin-9-yl)-5-(pyridin-4-yl)-2,4-dihydro-3H-1,2,4-triazole-3-thione]	58.8 ± 3.22	44.2 ± 2.68	15.2 ± 1.08	15.7 ± 1.58	264 to 268	69.2 ± 2.16	46.8 ± 2.93	
COc1ccc(-n2c(-c3c4ccccc4nc4ccc(C)cc34)n[nH]c2=S)cc1 [5h, 4-(4-methoxyphenyl)-4-(2-methylacridin-9-yl)-2,4-dihydro-3H-1,2,4-triazole-3-thione]								IC50 [1]: 26.3 ± 2.51 µM; IC50 [2]: 40.3 ± 2.06 µM; IC50 [3]: 68.1 ± 2.64 µM; IC50 ([4]; MTT): 10.9 ± 0.97 µM; IC50 [5]: 11.2 ± 1.16 µM; reduction in the vessel length (SIVs) compared to the mean vessel length for the controls ([6]; 72 hpf zebrafish embryos): ~50%; area of the meshed pattern vessel and number of vascular branches in the network ([6]; zebrafish embryos, compared with blank control group): decreased; mortality rate of zebrafish embryos [7]: ~0%; malformation rate of zebrafish embryos ([7]; 2.0 mg.L^−1): less than 15%; MAR (malformation rate) ([7]; 1 mg/mL): 5% ^a; MOR (mortality rate) ([7]; 1 mg/mL): 0%; MAR (malformation rate) ([7]; 1.5 mg/mL): 10% ^a; MOR (mortality rate) ([7]; 1.5 mg/mL): 0%; MAR (malformation rate) ([7]; 2 mg/mL): 15% ^a; MOR (mortality rate) ([7]; 2 mg/mL): 0%; IC50 [8]: 37.7 ± 2.47 µM
Cc1ccc2nc3ccccc3c(-n3c(-c4ccc([N+](=O)[O-])cc4)n[nH]c3=S)c2c1 [5i, 4-(2-methylacridin-9-yl)-5-(4-nitrophenyl)-2,4-dihydro-3H-1,2,4-triazole-3-thione]	28.3 ± 1.32	31.7 ± 2.36	8.92 ± 0.99	14.3 ± 1.27	245 to 247	70.9 ± 2.99	> 100	

Second part, led by results:

IC50 ([1]; Homo sapiens) [µM]	IC50 ([2]; Homo sapiens) [µM]	IC50 ([4]; Homo sapiens, MGC-803, MTT) [µM]	IC50 ([5]; Homo sapiens) [µM]	melting point [°C]	Structure (SMILES)	IC50 ([3]; Homo sapiens, Fibroblast) [µM]	IC50 ([8]; Homo sapiens) [µM]	other results
47.5 ± 3.51	32.3 ± 2.82	23.3 ± 1.97	49.4 ± 4.59	263 to 265	COC1=CC2C(=Nc3nnc(-c4ccccc4)s3)c3ccccc3NC2C=C1 (stereo not drawn) [6b, 7-methoxy-N-(5-phenyl-1,3,4-thiadiazol-2-yl)-10,10a-dihydroacridin-9(8aH)-imine]	79.3 ± 2.48	> 100	
30.2 ± 2.45	25.1 ± 2.15	12.1 ± 1.22	24.3 ± 2.34	230 to 232	COC1=CC2C(=Nc3nnc(-c4ccc(OC)cc4)s3)c3ccccc3NC2C=C1 (stereo not drawn) [6c, 7-methoxy-N-(5-(4-methoxyphenyl)-1,3,4-thiadiazol-2-yl)-10,10a-dihydroacridin-9(8aH)-imine]	65.2 ± 3.92	> 100	
> 100	> 100	26.7 ± 3.35	> 100	258 to 260	COC1=CC2C(=Nc3nnc(-c4ccc([N+](=O)[O-])cc4)s3)c3ccccc3NC2C=C1 (stereo not drawn) [6d, 7-methoxy-N-(5-(4-nitrophenyl)-1,3,4-thiadiazol-2-yl)-10,10a-dihydroacridin-9(8aH)-imine]	> 100	> 100	
55.7 ± 3.28	40.3 ± 2.19	12.3 ± 1.96	13.9 ± 1.37	276 to 278	CC1=CC2C(=Nc3nnc(-c4ccncc4)s3)c3ccccc3NC2C=C1 (stereo not drawn) [6f, 7-methyl-N-(5-(pyridin-4-yl)-1,3,4-thiadiazol-2-yl)-10,10a-dihydroacridin-9(8aH)-imine]	45.4 ± 2.18	37.2 ± 2.12	
13.9 ± 1.83	48.5 ± 3.06	13 ± 1.89	15.5 ± 1.98	258 to 260	CC1=CC2C(=Nc3nnc(-c4ccc(Cl)cc4)s3)c3ccccc3NC2C=C1 (stereo not drawn) [6j, 7-methyl-N-(5-(4-chlorophenyl)-1,3,4-thiadiazol-2-yl)-10,10a-dihydroacridin-9(8aH)-imine]	56.2 ± 3.16	51.2 ± 3.09	
